Results on one compound are retold here after patent publication US6919455B2, “Purine derivative dihydrate, drugs containing the same as the active ingredient and intermediate in the production thereof” (Mitsubishi Chemical Corporation, priority 1999, dated 2005).

This experiment concerns PDE IV. As to the kind of experiment: PDE IV inhibiting effect (3H-cAMP hydrolysis, crude enzyme from U937 cells). The note with it: read-out: IC50 (concentration for 50% inhibition) against PDE IV; crude enzyme from cytoplasmic fraction of human monocyte-like U937 cells; 0.4 μM 3H-cAMP; pH 8.0; 30° C., 15 minutes.

pIC50: −log10 of the molar value.

Procedure: The crude enzyme was purified from a cytoplasmic fraction of human monocyte-like cell strain U937 by using a Q-Sepharose column according to the method of Nicholson et al. (Br. J. Pharmacol., 97, 889 (1989)]. The enzymatic activity was determined by performing a reaction using 0.4 μM ^3H-cAMP as the substrate in 50 mM Tris buffer (pH 8.0) containing 0.1 mg/ml BSA, 1 ml of EDTA and 5 mM MgCl2 at 30° C. for 15 minutes, and then separating the produced ^3H-5′-AMP using a cation exchange column and measuring its radioactivity according to the method of Hidaka et al. [Biochem. Med., 10, 301 (1974)]. After a test compound was added, the reaction mixture was incubated at 30° C. for 15 minutes, and then added with the substrate.

With `COc1ccc(Cn2c(C)nc3c(C)nc(OCCCc4cc[n+]([O-])cc4)nc32)cc1OC1CCCC1` [dihydrate of the present invention, Dihydrate of 4-[[9-[(3-cyclopentyloxy-4-methoxy)benzyl]-6,8-dimethylpurine]-2-yl-3-oxypropyl]pyridine N-oxide], the pIC50 is 8.47.
